These results are taken from patent US20200246284A1 (Academia Sinica, priority 2015, published 2020).

What is called IC50 is the point on the concentration scale where inhibition reaches its midpoint. What is called AUC is the area under the concentration-time curve, a measure of exposure. Low readings indicate less exposure, high ones more exposure. Usually Cmax stands for the peak of the concentration-time curve. As usually defined, the clearance is the volume of plasma or blood freed of the substance per unit of time. As a reminder, the half-life is the time needed for the level to fall by half in the phase considered.

SMILES strings stand for the structures.

One series has as its system Pfeiffer. To be noted: human.
The next series deals with SUDHL-5. In words: Cytotoxicity DLBCL. To be noted: read-out: cytotoxicity IC50; SUDHL-5, DLBCL GCB.
Series [1] can be described thus: Pharmacokinetics, IV bolus 10 mg/kg. It is filed as in vivo, Sprague-Dawley rats. To be noted: rat. The method, then: Serial blood samples were collected from the jugular vein at 0, 5, 10, 15, 30, 45, 60, 90, 120, 150, 180, 240, 300, 360 min after dosing. […] All pharmacokinetic analysis was carried out using the WinNonlin Standard Edition Version 1.0 (Scientific Consulting Inc., Apex, NC, USA).

The next series deals with HBL1. Conditions: human.
Another series relates to CCRF-CEM. In words: Cytotoxicity leukemia. The series is classed as cell-based, human.
The test system of the next series is Toledo. Conditions: human.
The test system of the next series is H125. The series is classed as cell-based, human.
A further series has as its system H209. In words: Cytotoxicity SCLC 72 hr alamar blue. It is filed as cell-based, human. Background: Alamar Blue is a resazurin reagent that responds to reducing activity.
The test system of the next series is H596. The series is classed as cell-based, human.
A further series has as its system PC9/gefb4. It is filed as cell-based, human.
The test system of the next series is H3255. It is filed as cell-based, human.
In another series the test system is H1703. The series is classed as cell-based, human.
For a further series, the system named is H719. Description: Cytotoxicity SCLC 72 hr alamar blue. The series is classed as cell-based, human.
The next series deals with H417. Description: Cytotoxicity SCLC 72 hr alamar blue. It is filed as cell-based, human.
The subject of another series is H1650. It is filed as cell-based, human.
The subject of the next series is CALU-3. The series is classed as cell-based, human.
Setting [2] is: male, Sprague-Dawley, plasma, IV 10 mg/kg, n=5.
Where [3] appears, read: male, Sprague-Dawley, plasma, iv, 10 mg/kg, n=5.

Description for HBL1: (§1) After 72 hours, the cultures were pulsed with Alamar Blue overnight, and the fluorescent intensity of resulted cultures was measured by a Synergy H1 plate-reader (BioTek Inc).
Description for Pfeiffer: as §1
Description for Toledo: as §1

In the case of `CN(C)CCNC(=O)c1cccc(NC(=O)Nc2ccc(N(CCCl)CCCl)cc2)c1` [BO-1055, Ureidomustine], the IC50 in the series with Pfeiffer was 3.87 µM; in the series on SUDHL-5, 4.14 µM; with HBL1, 0.87 µM; with CCRF-CEM, 0.13 ± 0.002 µM; with Toledo, 8.95 µM. For the same compound, in series [1] (IV 10 mg/kg), the tissue distribution result is on record as “accumulated mainly in the kidney, with only a limited amount detected in the brain”. Moreover, the Cl in series [1] (IV 10 mg/kg, n=5, 10 mg/kg) is listed as 39.2 ± 10.6 mL/min per kg. The same compound showed an AUC in series [1] (setting [2]) of 4450 ng·h/mL. The maximum concentration (Cmax) in series [1] (setting [2]) was found to be 13400 ± 6170 ng/mL. For the same compound, the clearance in [1] (setting [3]) was found to be 39.4 ± 10.6 mL/min/kg. The compound also gave a half-life in series [1] (setting [3]) of 46.2 min.

Consider `N.N.[Cl][Pt][Cl]` [Cisplatin], for which the half-inhibitory concentration (IC50) in the series with H125 was 1.5 µM; in the series on H209, 0.31 µM; in the series with H596, ≥ 10 µM; with PC9/gefb4, ≥ 35 µM; in the series on H3255, ≥ 25 µM; in the series with H1703, ≥ 20 µM. Moreover, the IC50 in the series with H719 was 1.12 µM; in the series with H417, 2.01 µM; with H1650 it was 7.51 µM; in the series with CALU-3, ≥ 100 µM.
